Reference: PMC8708751, “Hit Identification of a Novel Quinazoline Sulfonamide as a Promising EphB3 Inhibitor: Design, Virtual Combinatorial Library, Synthesis, Biological Evaluation, and Docking Simulation Studies” (Pharmaceuticals, 2021)

Tests used:
Format in all cases: biochemical
EphB1 = target: T1, EphB1 (Homo sapiens, UniProt P54762); assay: Kinase panel assay, EphB1
T1 construct: purchased Reaction Biology Co. (Kinase HotSpot service)
T1 sequence (P54762 18-984): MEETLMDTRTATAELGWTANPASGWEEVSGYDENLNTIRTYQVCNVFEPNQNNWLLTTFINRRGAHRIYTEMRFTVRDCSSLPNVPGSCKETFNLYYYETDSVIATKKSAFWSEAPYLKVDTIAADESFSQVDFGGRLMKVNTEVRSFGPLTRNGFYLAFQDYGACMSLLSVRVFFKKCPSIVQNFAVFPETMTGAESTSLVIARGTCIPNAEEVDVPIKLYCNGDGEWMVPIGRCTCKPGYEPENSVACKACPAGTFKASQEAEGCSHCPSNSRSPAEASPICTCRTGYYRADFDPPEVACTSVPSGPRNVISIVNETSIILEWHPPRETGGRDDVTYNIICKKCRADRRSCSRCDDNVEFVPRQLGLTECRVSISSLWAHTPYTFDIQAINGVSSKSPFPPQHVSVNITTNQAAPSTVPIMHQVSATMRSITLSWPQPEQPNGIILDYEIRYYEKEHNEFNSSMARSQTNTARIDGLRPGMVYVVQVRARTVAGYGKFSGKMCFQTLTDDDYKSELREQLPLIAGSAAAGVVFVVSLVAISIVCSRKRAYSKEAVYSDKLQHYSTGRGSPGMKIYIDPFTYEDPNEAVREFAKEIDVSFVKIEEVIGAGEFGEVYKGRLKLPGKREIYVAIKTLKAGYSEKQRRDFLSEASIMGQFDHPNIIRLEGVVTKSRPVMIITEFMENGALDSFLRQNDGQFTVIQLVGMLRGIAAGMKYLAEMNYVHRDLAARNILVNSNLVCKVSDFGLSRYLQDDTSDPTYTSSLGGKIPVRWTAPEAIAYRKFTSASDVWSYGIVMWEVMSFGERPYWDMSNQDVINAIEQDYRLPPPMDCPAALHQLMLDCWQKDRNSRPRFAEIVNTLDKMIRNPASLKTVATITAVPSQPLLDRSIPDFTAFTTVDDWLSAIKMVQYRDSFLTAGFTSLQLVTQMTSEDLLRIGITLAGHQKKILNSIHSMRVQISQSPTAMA
Protocol: (§1) The HotSpot assay platform contains specific kinase/substrate pairs along with required cofactors. Base reaction buffer: 20 mM Hepes (pH 7.5), 10 mM MgCl2, 1 mM EGTA, 0.02% Brij35, 0.02 mg/mL BSA, 0.1 mM Na3VO4, 2 mM DTT, 1% DMSO. The tested compounds were dissolved in 100% DMSO to specific concentration. The serial dilution was conducted by Integra Viaflo Assist in DMSO (Sigma-Aldrich, Burlington, MA, USA). The reaction mixture containing the examined compound and 33P-ATP was incubated at room temperature for 2 h, and radioactivity was detected by filter-binding method. Kinase activity data were expressed as the percent remaining kinase activity in test samples compared to vehicle (dimethyl sulfoxide) reactions. IC50 values and curve fits were obtained using Prism (GraphPad Software, San Diego, CA, USA).

KDR/VEGFR2 = target: T2, KDR/VEGFR2 (Homo sapiens, UniProt P35968); assay: Kinase panel assay, KDR/VEGFR2; conditions: KDR/VEGFR2, 10 µM; read-out: Average % Enzyme Inhibition (Relative to DMSO Controls) at 10 µM
T2 construct: purchased Reaction Biology Co. (Kinase HotSpot service)
Protocol: as §1, with “The screening of the tested compounds was performed using the Kinase HotSpot^SM service from Reaction Biology Co. (http://www.reactionbiology.com, accessed on 25 September 2021). The HotSpot” for “The HotSpot”

EphB4 = target: T3, EphB4 (Homo sapiens, UniProt P54760); assay: Kinase panel assay, EphB4
T3 construct: purchased Reaction Biology Co. (Kinase HotSpot service)
T3 sequence (P54760 16-987): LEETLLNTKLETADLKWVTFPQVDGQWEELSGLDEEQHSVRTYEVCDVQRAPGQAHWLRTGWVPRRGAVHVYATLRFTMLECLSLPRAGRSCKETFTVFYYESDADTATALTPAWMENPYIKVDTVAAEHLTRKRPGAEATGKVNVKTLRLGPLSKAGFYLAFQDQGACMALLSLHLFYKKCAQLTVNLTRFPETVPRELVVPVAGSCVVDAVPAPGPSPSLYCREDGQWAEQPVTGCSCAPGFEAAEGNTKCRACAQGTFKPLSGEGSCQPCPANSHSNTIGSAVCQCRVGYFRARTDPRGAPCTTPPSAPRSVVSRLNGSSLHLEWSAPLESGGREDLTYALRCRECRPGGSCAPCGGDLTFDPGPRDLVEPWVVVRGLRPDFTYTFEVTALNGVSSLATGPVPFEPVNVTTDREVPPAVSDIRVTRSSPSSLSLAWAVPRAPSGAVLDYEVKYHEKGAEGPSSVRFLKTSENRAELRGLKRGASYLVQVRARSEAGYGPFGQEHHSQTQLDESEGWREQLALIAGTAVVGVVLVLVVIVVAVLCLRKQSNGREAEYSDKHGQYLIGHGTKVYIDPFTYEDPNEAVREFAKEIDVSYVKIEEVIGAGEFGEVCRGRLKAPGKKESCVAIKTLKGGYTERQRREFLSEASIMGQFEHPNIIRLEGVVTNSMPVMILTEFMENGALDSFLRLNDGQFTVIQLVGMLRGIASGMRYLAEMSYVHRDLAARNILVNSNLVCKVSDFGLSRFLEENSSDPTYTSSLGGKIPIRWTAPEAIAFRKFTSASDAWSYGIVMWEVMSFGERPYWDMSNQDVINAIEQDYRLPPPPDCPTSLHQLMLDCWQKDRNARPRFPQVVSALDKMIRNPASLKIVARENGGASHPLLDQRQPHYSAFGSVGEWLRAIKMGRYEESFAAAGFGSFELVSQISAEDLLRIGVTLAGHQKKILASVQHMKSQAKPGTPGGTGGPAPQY
Protocol: as §1

T2 sequence (P35968 20-1356): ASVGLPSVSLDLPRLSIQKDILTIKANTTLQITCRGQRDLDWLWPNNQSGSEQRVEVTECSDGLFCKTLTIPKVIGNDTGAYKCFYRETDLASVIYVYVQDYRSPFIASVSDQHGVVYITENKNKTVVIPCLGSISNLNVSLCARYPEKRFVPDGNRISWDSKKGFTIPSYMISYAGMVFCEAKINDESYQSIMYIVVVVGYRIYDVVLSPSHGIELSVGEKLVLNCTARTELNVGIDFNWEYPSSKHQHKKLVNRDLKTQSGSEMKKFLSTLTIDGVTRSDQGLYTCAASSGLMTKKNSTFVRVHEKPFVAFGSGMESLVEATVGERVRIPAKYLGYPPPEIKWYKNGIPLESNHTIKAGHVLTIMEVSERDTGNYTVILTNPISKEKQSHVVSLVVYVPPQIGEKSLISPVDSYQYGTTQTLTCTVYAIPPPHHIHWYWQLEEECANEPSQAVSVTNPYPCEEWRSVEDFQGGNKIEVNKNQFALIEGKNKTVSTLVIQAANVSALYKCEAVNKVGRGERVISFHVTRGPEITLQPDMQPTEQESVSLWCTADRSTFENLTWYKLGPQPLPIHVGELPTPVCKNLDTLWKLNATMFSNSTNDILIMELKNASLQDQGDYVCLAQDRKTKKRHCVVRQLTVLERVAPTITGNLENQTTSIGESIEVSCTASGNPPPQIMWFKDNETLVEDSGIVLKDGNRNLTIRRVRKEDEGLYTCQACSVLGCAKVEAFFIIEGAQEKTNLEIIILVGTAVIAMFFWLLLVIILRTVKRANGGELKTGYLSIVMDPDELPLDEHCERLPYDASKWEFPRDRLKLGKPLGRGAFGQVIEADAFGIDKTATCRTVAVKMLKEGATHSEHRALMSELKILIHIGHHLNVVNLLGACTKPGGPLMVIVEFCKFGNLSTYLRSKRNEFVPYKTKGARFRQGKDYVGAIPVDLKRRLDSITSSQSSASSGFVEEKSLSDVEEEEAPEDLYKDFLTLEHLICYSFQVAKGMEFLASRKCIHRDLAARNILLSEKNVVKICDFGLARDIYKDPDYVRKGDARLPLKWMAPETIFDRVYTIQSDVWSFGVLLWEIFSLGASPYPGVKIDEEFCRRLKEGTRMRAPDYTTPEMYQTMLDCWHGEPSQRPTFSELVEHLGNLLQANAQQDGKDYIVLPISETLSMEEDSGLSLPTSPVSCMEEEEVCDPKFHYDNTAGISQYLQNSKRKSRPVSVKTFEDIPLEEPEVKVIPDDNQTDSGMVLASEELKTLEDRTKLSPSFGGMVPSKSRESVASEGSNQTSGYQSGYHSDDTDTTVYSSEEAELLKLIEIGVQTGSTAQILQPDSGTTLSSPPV

`NS(=O)(=O)c1ccc(Nc2ncnc3ccc(-c4cccc(O)c4)cc23)cc1` [Compound 4c, 4-((6-(3-Hydroxyphenyl)quinazolin-4-yl)amino)benzenesulfonamide] showed an inhibition at 10 µM (EphB1; EphB1, 10 µM, read-out: Average % Enzyme Inhibition (Relative to DMSO Controls) at 10 µM) of 58.9 ± 1.98%, an IC50 (EphB1; EphB1, dose-dependent assay) of 5.86 µM and an inhibition at 10 µM (KDR/VEGFR2) of 47.8%. It also gave an inhibition at 10 µM (EphB4; EphB4, 10 µM, read-out: Average % Enzyme Inhibition (Relative to DMSO Controls) at 10 µM) of 70.2 ± 3.64% and an IC50 (EphB4; EphB4, dose-dependent assay) of 3.98 µM.
